Row | Structure (SMILES) | melting point [°C]
1 | O=C(C=Cc1cccnc1)NCCC(O)CN1CCN(C(c2ccccc2)c2ccccc2)CC1 (stereo not shown) [Substance 29, N-[4-(4-diphenylmethyl-piperazin-1-yl)-3-hydroxy-butyl]-3-pyridin-3-yl-acrylamide] | 168 to 171
2 | O=C(C=Cc1cccnc1)NOCCCN1CCN(C(c2ccccc2)c2ccccc2)CC1 [Substance 30, N-[3-(4-diphenylmethylpiperazin-1-yl)-propoxy]-3-pyridin-3-yl-acrylamide] | 115 to 117
3 | O=C(C=Cc1cccnc1)NCCCS(=O)(=O)N1CCN(C(c2ccccc2)c2ccccc2)CC1 [Substance 32, N-[3-(4-diphenylmethyl-piperazin-1-yl-sulfonyl)-propyl]-3-pyridin-3-yl-acrylamide] | 167 to 168
4 | O=C(C=Cc1cccnc1)NCCCCN1CCN(c2ccccc2-c2ccccc2)CC1 [Substance 68, N-[4-(4-biphenyl-2-yl-piperazin-1-yl)-butyl)-3-pyridin-3-yl-acrylamide] | 115
5 | O=C(C=Cc1cccnc1)NCCCCN1CCN(C2CCCc3ccccc32)CC1 (stereo not shown) [Substance 87, 3-pyridin-3-yl-N-{4-[4-(1,2,3,4-tetrahydronaphthalin-1-yl)-piperazin-1-yl]-butyl}-acrylamide] | 110 to 114
6 | O=C(C=Cc1cccnc1)NCCCCN1CCN(c2cccc3c2CCCC3)CC1 [Substance 94, 3-pyridin-3-yl-N-[4-(4-{5,6,7,8-tetrahydro-naphthalin-1-yl}-piperazin-1-yl)-butyl]-acrylamide] | 108 to 109
7 | O=C(C=Cc1cccnc1)NCCN1CCN(S(=O)(=O)c2ccc3ccccc3c2)CC1 [Substance 227, N-{2-[4-(naphthalin-2-yl-sulfonyl)-piperazin-1-yl]-ethyl}-3-pyridin-3-yl-acrylamide] | 183 to 184
